Reference: ChEMBL document CHEMBL1201862, “PubChem BioAssay data set” (2004)
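Values below derive from 48-hour exposures of cells grown in 96-well plates, with endpoints linearly interpolated between the two concentrations bracketing the appropriate inhibition level. GI50: concentration for 50% inhibition of growth.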 Activity calls are given as the source filed them. No stated cut-off is given here; in the data, active = GI50 up to about 1.1 µM and inactive = higher.

Assays:
Assay in all cases: NCI-60 cell line screen, 48 h
[1] = test system: 786-0
[2] = test system: ACHN
[3] = test system: CAKI-1
[4] = test system: HCC 2998
[5] = test system: MCF7
[6] = test system: MDA-MB-231
[7] = test system: MDA-MB-435
[8] = test system: MDA-N
[9] = test system: Malme-3M
[10] = test system: NCI-H226
[11] = test system: NCI-H23
[12] = test system: OVCAR-3
[13] = test system: OVCAR-8
[14] = test system: SF-539
[15] = test system: SNB-75
[16] = test system: U-251
[17] = test system: A498
[18] = test system: HOP-92
[19] = test system: OVCAR-4
[20] = test system: SK-MEL-2

Measured: GI50

C=C1C(=O)O[C@H]2C[C@@]3(COC(C)=O)C=COC=C(COC(=O)C(C)C)C3CC12 (stereo partly specified)
inactive: [1] > 100 µM | [2] > 100 µM | [3] 65.2 µM | [4] 51.4 µM | [5] 52.4 µM | [6] 61.9 µM | [7] 73.5 µM | [8] 45.7 µM | [9] > 100 µM | [10] > 100 µM | [11] > 100 µM | [12] > 100 µM | [13] 53.3 µM | [14] > 100 µM | [15] 12.2 µM | [16] 29.4 µM

COc1ccccc1/N=N/C(=N/NC(=O)c1ccc(C)cc1)c1ccc(N(CCC#N)CCC#N)cc1OC
inactive: [1] 31.7 µM | [17] 22.2 µM | [2] 19.6 µM | [3] 52.7 µM | [4] 34.2 µM | [18] 27.4 µM | [5] 13.4 µM | [6] 24.9 µM | [7] 29.1 µM | [8] 23.2 µM | [9] 38.1 µM | [10] 80 µM | [11] 32.4 µM | [12] 29 µM | [19] 31.9 µM | [13] 32.5 µM | [20] 19.8 µM | [16] 32.5 µM

C=C(C)COC1CCCCO1 (stereo unspecified)
inactive: [1] > 100 µM | [17] > 100 µM | [2] > 100 µM | [3] > 100 µM | [4] > 100 µM | [5] > 100 µM | [6] > 100 µM | [7] > 100 µM | [8] > 100 µM | [9] > 100 µM | [10] > 100 µM | [11] > 100 µM | [12] > 100 µM | [13] > 100 µM | [14] > 100 µM | [20] > 100 µM | [15] > 100 µM | [16] > 100 µM

Cc1nnc(N)nc1C/C=C/C(Sc1ccc(Cl)cc1)c1ccccc1 (stereo unspecified)
inactive: [1] 3.27 µM | [17] 3.73 µM | [2] 4.3 µM | [3] 5.7 µM | [4] 9.38 µM | [18] 5.68 µM | [5] 3.95 µM | [6] 6.76 µM | [7] 3.15 µM | [8] 6.21 µM | [9] 3.06 µM | [10] 1.86 µM | [11] 3.17 µM | [19] 4.94 µM | [13] 5.04 µM | [20] 5.66 µM | [15] 4.45 µM | [16] 2.91 µM

O=C(O)C12CC3(C(=O)O)CC(C(=O)O)(CC(C(=O)O)(C1)C3=O)C2=O
inactive: [1] > 100 µM | [17] > 100 µM | [2] > 100 µM | [3] > 100 µM | [18] > 100 µM | [5] > 100 µM | [6] > 100 µM | [7] > 100 µM | [8] > 100 µM | [9] > 100 µM | [10] > 100 µM | [11] > 100 µM | [12] > 100 µM | [19] > 100 µM | [13] > 100 µM | [20] > 100 µM | [15] > 100 µM | [16] > 100 µM

N#Cc1nn(C2OC(COC(=O)c3ccccc3)C(OC(=O)c3ccccc3)C2OC(=O)c2ccccc2)c2nc[nH]c(=O)c12 (stereo unspecified)
inactive: [1] 35.9 µM | [17] 11.4 µM | [2] 44.3 µM | [3] 38.5 µM | [4] 78.2 µM | [5] 93.5 µM | [6] 58.3 µM | [7] 46.2 µM | [8] 49.2 µM | [9] 36.1 µM | [10] > 100 µM | [11] 24.4 µM | [12] 46 µM | [19] 38.3 µM | [13] 27.8 µM | [14] 68.4 µM | [20] 85.5 µM | [15] 76 µM | [16] 62.5 µM

CC(=O)OC(Cc1c(O)c2c(C)cccc2oc1=O)C(C)(C)O (stereo unspecified)
inactive: [1] > 100 µM | [17] > 100 µM | [2] > 100 µM | [3] > 100 µM | [4] > 100 µM | [5] > 100 µM | [6] > 100 µM | [7] > 100 µM | [8] > 100 µM | [9] > 100 µM | [10] > 100 µM | [11] > 100 µM | [12] > 100 µM | [13] > 100 µM | [14] > 100 µM | [20] > 100 µM | [15] 76 µM | [16] > 100 µM

Cn1ccc(C(=O)NCCOCCNC(=O)c2ccn(C)c(=O)c2O)c(O)c1=O
inactive: [1] > 100 µM | [17] > 100 µM | [2] > 100 µM | [3] > 100 µM | [4] > 100 µM | [18] > 100 µM | [6] > 100 µM | [7] > 100 µM | [8] > 100 µM | [9] > 100 µM | [10] > 100 µM | [11] > 100 µM | [19] > 100 µM | [13] > 100 µM | [20] > 100 µM | [16] > 100 µM
